For experiment [1], the system named is aOBBs (anisotropic organ building blocks of hiPSC-CMs and hNDFs). In words: aOBB contraction (force generation on micro-pillars) with ROCK inhibitor and after washing. The class given is cell-based, human. The conditions noted are these: FIG. 8E, n=10 aOBBs from 1 passage. The text has this:
FIGS. 8A-8G depict scalable generation of cellularly aligned, anisotropic organ building blocks (OBBs). […] Scale bars, top: 200 μm, bottom: 20 μm. (FIG. 8B) Fourier analysis used to quantify the high degree of sarcomere alignment. (FIG. 8C) Without capped ends, aOBBs slide off micro-pillars overtime. (FIG. 8D) aOBB force generation on Day 3. n=5 separate passages. […] Scale bars, 1000 μm. FIGS. 14A-14C depict contractile force measurements for aligned cardiac tissues. Force measurements are quantified using Euler-Bernoulli beam theory. Image and schematic representations of (FIG. 14A) micro- and (FIG. 14B) macro-pillars were quantified using an Instron. Micro- and macro-pillar dimensions were measured from high resolution images recorded across 20 independent samples. (FIG. 14C) The material and geometric information were combined to numerically estimate cantilever spring constants and translate pillar displacement to force generation. Based upon the total concentration of iPSC-CMs, an appropriate volume of 1× rat tail collagen I (Corning) solution was prepared on ice. An appropriate volume of collagen I is calculated based upon a desired final concentration of 1.25 mg/mL. Then y/100 mL of 250 mM CaCl2, ˜x/40 mL of 1 N NaOH, and y mL of collagen I are added, in order, to the basal DMEM high glucose media. […]

The test system is the same in experiment [2]. In words: aOBB compaction upon harvest from micropillar array after pre-incubation in ROCK inhibitor. The class given is cell-based, human. The conditions noted are these: FIGS. 8F, 8G; pre-incubation of aOBBs (50 uM, 1 hour). As for the experimental part:
FIGS. 8A-8G depict scalable generation of cellularly aligned, anisotropic organ building blocks (OBBs). […] Scale bars, top: 200 μm, bottom: 20 μm. (FIG. 8B) Fourier analysis used to quantify the high degree of sarcomere alignment. (FIG. 8C) Without capped ends, aOBBs slide off micro-pillars overtime. (FIG. 8D) aOBB force generation on Day 3. n=5 separate passages. […] Scale bars, 1000 μm. In order to prevent aOBB compaction upon removal from pillars, the aOBBs may be pre-incubated in 50 uM rock inhibitor (Y-27632) for a period of time, such as, e.g., 1 hour. Second, 1 mL of 10% gelbrin (w/v) solution is prepared in DMEM/F12 (Gibco). Third, DMEM High Glucose+10% FBS is supplemented with 50 μM […] (Biogems). Fourth, 100 U/mL thrombin solution is prepared in DMEM High Glucose+10% FBS. All ECM and media solutions were held at 37° C. using a hotplate. […] After 1 h, the aOBBs were harvested manually using a P1000 pipette with wide-bore tips. The wide-bore tips were treated with 3% bovine serum albumin (BSA) to prevent adsorption of the aOBBs. aOBBs were collected three wells at a time and transferred into a single 50 mL tube. Upon collection, the aOBBs were allowed to settle under gravity for 5 min. After the supernatant was aspirated, the volume (x mL) of compacted aOBBs was estimated. We subsequently wash compacted aOBBs in 3× volume of gelbrin bioink. […]

As for `C[C@@H](N)[C@H]1CC[C@H](C(=O)Nc2ccncc2)CC1` [Y-27632], the “recovery of aOBB contractile function” value in experiment [1] (after washing out ROCK inhibitor) is given as “Full contractile function is recovered after washing”. The “effect on aOBB contraction” value in experiment [1] (during exposure to ROCK inhibitor) was “temporarily blunts aOBB contraction”. The “effect on aOBB compaction upon harvest” value in experiment [2] is listed as “blunts compaction upon harvest from micropillar array”.

The record behind these values is patent US20250222168A1, “METHOD OF FORMING AN ALIGNED TISSUE OR TISSUE CONSTRUCT, A TISSUE OR TISSUE CONSTRUCT, AND BIOINK” (PRESIDENT AND FELLOWS OF HARVARD COLLEGE, priority 2022, published 2025).
